Test results taken from ChEMBL document CHEMBL1151355, “The isolation of loliolide from an Indian Ocean opisthobranch mollusc” (1980).
In brackets after ≈: the same amount, converted by molar mass. Activity calls are given as the source filed them. No cut-off for these calls is given here.

Experiments:
[1] = tested on: KB; assay: Cytotoxicity against human KB cells; assay type: functional; details: read-out: ED50 (the source's name)
[2] = tested on: P388; assay: Cytotoxicity against mouse P388 cells; assay type: functional; details: read-out: ED50 (the source's name)
[3] = tested on: P388; assay: In vivo cytotoxicity against mouse P388 cells at 2.5 to 10 mg/kg; assay type: functional, organism-based

## CC1(C)CC(O)C[C@@]2(C)OC(=O)C=C12 (stereo partly drawn)
[1]
  EC50: 10 µg/mL (≈ 51 µM)
[2]
  EC50: 3.5 µg/mL (≈ 17.8 µM)
[3]
  Activity: inactive
